Results: US20250313563A1, “GLYCOGEN SYNTHASE KINASE 3 INHIBITORS AND USES THEREOF” (The Broad Institute, Inc., priority 2022, published 2025)
Read-outs that look alike come from different tables or passages of the source.

Experiments:
[1] = target: GSK3α (GST-full length GSK3α) (Homo sapiens (Human), UniProt P49840); experiment: GSK3α TR-FRET kinase assay; type: biochemical
Method in brief: (§1)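 Full-length GST-tagged human enzyme (1 nM) is exposed to test compound for 30 min before substrates are added. Phosphorylation of a primed biotinylated glycogen synthase peptide proceeds 100 min at room temperature at low ATP (4 μM α; 2 μM β) or high ATP (1 mM). Product is quantified by TR-FRET.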

[2] = target: GSK3b (GST-full length GSK3b) (Homo sapiens (Human), UniProt P49841); experiment: GSK3b TR-FRET kinase assay; type: biochemical
Method in brief: as §1

[3] = 1 nM GSK3α, 4 μM ATP, 30 minute preincubation, read-out: GSK3-A TR-FRET BIOCHEMICAL (TR-FRET), IC50
[4] = 1 nM GSK3b, 2 μM ATP, 30 minute preincubation, read-out: GSK3-B TR-FRET BIOCHEMICAL (TR-FRET), IC50
[5] = 1 nM GSK3α, 4 μM ATP, 30 minute preincubation, Table 16, read-out: GSK3-A TR-FRET BIOCHEMICAL (TR-FRET)
[6] = 1 nM GSK3b, 2 μM ATP, 30 minute preincubation, Table 16, read-out: GSK3-B TR-FRET BIOCHEMICAL (TR-FRET)
[7] = read-out: GSK3-A (TR-FRET 1 mM ATP), GMean, IC50, 1 mM ATP, geometric mean
[8] = read-out: GSK3-B (TR-FRET 1 mM ATP), GMean, IC50, 1 mM ATP, geometric mean

Chain of GSK3b (GST-full length GSK3b) (P49841 whole entry): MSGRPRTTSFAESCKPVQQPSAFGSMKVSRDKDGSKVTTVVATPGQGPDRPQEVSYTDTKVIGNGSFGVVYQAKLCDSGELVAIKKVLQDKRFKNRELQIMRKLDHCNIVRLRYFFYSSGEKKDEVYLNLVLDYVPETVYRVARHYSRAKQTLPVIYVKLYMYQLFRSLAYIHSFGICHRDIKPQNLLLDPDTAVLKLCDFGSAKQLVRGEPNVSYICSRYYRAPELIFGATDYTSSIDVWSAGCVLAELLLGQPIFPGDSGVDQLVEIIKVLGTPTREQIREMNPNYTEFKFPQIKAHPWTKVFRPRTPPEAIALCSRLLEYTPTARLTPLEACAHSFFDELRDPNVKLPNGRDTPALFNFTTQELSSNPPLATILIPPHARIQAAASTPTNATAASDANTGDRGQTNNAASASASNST
Chain of GSK3α (GST-full length GSK3α) (P49840 whole entry): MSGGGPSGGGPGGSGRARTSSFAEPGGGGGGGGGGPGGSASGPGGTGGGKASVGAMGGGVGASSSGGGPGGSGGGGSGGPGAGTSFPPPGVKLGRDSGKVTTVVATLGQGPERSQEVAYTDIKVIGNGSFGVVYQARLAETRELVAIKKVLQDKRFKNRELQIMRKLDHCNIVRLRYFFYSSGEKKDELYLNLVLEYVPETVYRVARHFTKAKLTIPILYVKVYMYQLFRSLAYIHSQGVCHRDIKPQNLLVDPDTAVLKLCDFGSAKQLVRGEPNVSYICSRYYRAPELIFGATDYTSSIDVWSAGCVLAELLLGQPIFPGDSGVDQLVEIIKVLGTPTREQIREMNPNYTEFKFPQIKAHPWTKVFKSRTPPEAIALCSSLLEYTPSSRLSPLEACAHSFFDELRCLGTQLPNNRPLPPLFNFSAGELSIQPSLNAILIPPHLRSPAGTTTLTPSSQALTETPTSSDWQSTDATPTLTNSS

CCC1(c2cccc(-c3ccncc3C)c2)C2=C(CC(C)(C)NC2=O)Nc2n[nH]cc21 (centres unmarked) [Compound 945461]
IC50 [1, 3]: ≤ 100 nM | IC50 [2, 4]: ≤ 100 nM

CCC1(c2cccc(-c3c(C)nn(C)c3C)c2)C2=C(CC(C)(C)NC2=O)Nc2n[nH]cc21 (centres unmarked) [Compound 945462]
IC50 [1, 3]: ≤ 100 nM | IC50 [2, 4]: ≤ 100 nM

CCC1(c2cccc(S(=O)(=O)C(C)C)c2)C2=C(CC(C)(C)NC2=O)Nc2n[nH]cc21 (centres unmarked) [Compound 945464]
IC50 [1, 3]: ≤ 100 nM | IC50 [2, 4]: ≤ 100 nM

CCC1(c2cccc(N(C)C3CC3)c2)C2=C(CC(C)(C)CC2=O)Nc2n[nH]cc21 (centres unmarked) [Compound 945466]
IC50 [1, 5]: 100 to 1000 nM | IC50 [2, 6]: 1000 to 5000 nM

CCC1(c2cccc(-c3cc(C)ncc3OC)c2)C2=C(CC(C)(C)CC2=O)Nc2n[nH]cc21 (centres unmarked) [Compound 945468]
IC50 [1, 5]: ≤ 100 nM | IC50 [2, 6]: 100 to 1000 nM

CC[C@@]1(c2cccc(-c3ccncc3CO)c2)C2=C(CC(C)(C)CC2=O)Nc2n[nH]cc21 [Compound 945469]
IC50 [1, 5]: ≤ 100 nM | IC50 [2, 6]: ≤ 100 nM

CC[C@]1(c2cccc(-c3cn(C)nc3C)c2)C2=C(CC(C)(C)NC2=O)Nc2n[nH]cc21 [Compound 945470]
IC50 [1, 3]: ≤ 100 nM | IC50 [1, 7]: 100 to 1000 nM | IC50 [2, 4]: ≤ 100 nM | IC50 [2, 8]: 1000 to 5000 nM

CC[C@]1(c2cccc(-c3ccncc3OC)c2)C2=C(CC(C)(C)CC2=O)Nc2n[nH]cc21 [Compound 945471]
IC50 [1, 5]: 1000 to 5000 nM | IC50 [1, 7]: > 5000 nM | IC50 [2, 6]: 1000 to 5000 nM | IC50 [2, 8]: > 5000 nM

CC[C@]1(c2cccc(N(C)c3ccc(C(F)(F)F)nc3)c2)C2=C(CC(C)(C)CC2=O)Nc2n[nH]cc21 [Compound 945474]
IC50 [1, 5]: ≤ 100 nM | IC50 [2, 6]: 100 to 1000 nM

CC1(C)CC(=O)C2=C(C1)Nc1n[nH]cc1C21CN(c2ccccn2)C1 [Compound 945477]
IC50 ([1]; 1 nM GSK3α, 4 μM ATP, 30 minute preincubation, Table 16, read-out: GSK3-A TR-FRET BIOCHEMICAL (TR-FRET), IC50): 1000 to 5000 nM | IC50 ([2]; 1 nM GSK3b, 2 μM ATP, 30 minute preincubation, Table 16, read-out: GSK3-B TR-FRET BIOCHEMICAL (TR-FRET), IC50): 1000 to 5000 nM

CC1(C)CC(=O)C2=C(C1)Nc1n[nH]cc1C21CN(c2ccc(C(F)(F)F)cc2)C1 [Compound 945478]
IC50 [1, 5]: 100 to 1000 nM | IC50 [2, 6]: 100 to 1000 nM

CC[C@@]1(c2cccc(-c3cn(C)nc3C)c2)C2=C(CC(C)(C)NC2=O)Nc2n[nH]cc21 [Compound 945480]
IC50 [1, 3]: 1000 to 5000 nM | IC50 [2, 4]: > 5000 nM

CCC1(c2cccc(-c3ccncc3OC)c2)C2=C(CC(C)(C)CC2=O)Nc2n[nH]cc21 (centres unmarked) [Compound 945481]
IC50 [1, 5]: ≤ 100 nM | IC50 [1, 7]: ≤ 100 nM | IC50 [2, 6]: ≤ 100 nM | IC50 [2, 8]: 100 to 1000 nM

CC1(C)CC(=O)C2=C(C1)Nc1n[nH]cc1[C@]21CCCN(S(=O)(=O)Cc2ccccc2)CC1 [Compound 945483]
IC50 [1, 5]: 100 to 1000 nM | IC50 [2, 6]: 100 to 1000 nM

CC[C@@]1(c2cccc(-c3ccnc(C)c3)c2)C2=C(CC(C)(C)[C@H](F)C2=O)Nc2n[nH]cc21 [Compound 945486]
IC50 [1, 5]: 1000 to 5000 nM | IC50 [2, 6]: > 5000 nM

CCC1(c2cccc(-c3ccncc3C)c2)C2=C(CC(C)(C)CC2=O)Nc2n[nH]c(C(F)(F)F)c21 (centres unmarked) [Compound 945527]
IC50 [1, 5]: ≤ 100 nM | IC50 [1, 7]: ≤ 100 nM | IC50 [2, 6]: ≤ 100 nM | IC50 [2, 8]: 100 to 1000 nM

CCC1(c2cccc(-c3ccncc3F)c2)C2=C(CC(C)(C)CC2=O)Nc2n[nH]c(C(F)(F)F)c21 (centres unmarked) [Compound 945528]
IC50 [1, 5]: ≤ 100 nM | IC50 [1, 7]: ≤ 100 nM | IC50 [2, 6]: ≤ 100 nM | IC50 [2, 8]: 100 to 1000 nM

CCC1(c2cccc(-c3ccnn3C)c2)C2=C(CC(C)(C)CC2=O)Nc2n[nH]c(C(F)(F)F)c21 (centres unmarked) [Compound 945531]
IC50 [1, 5]: ≤ 100 nM | IC50 [1, 7]: ≤ 100 nM | IC50 [2, 6]: ≤ 100 nM | IC50 [2, 8]: 100 to 1000 nM

CCC1(c2cccc(-c3cc(C)nn3C)c2)C2=C(CC(C)(C)CC2=O)Nc2n[nH]c(C(F)(F)F)c21 (centres unmarked) [Compound 945532]
IC50 [1, 5]: ≤ 100 nM | IC50 [1, 7]: ≤ 100 nM | IC50 [2, 6]: ≤ 100 nM | IC50 [2, 8]: 100 to 1000 nM

CCC1(c2cccc(-c3cnn4c3CCCC4)c2)C2=C(CC(C)(C)CC2=O)Nc2n[nH]cc21 (centres unmarked) [Compound 945543]
IC50 [1, 5]: ≤ 100 nM | IC50 [1, 7]: 100 to 1000 nM | IC50 [2, 6]: ≤ 100 nM | IC50 [2, 8]: 1000 to 5000 nM

CCC1(c2cccc(-c3cnn4c3CCCC4)c2)C2=C(CC(C)(C)CC2=O)Nc2n[nH]cc21 (centres unmarked) [Compound 945544]
IC50 [1, 5]: 100 to 1000 nM | IC50 [2, 6]: > 5000 nM

CC[C@@]1(c2cccc(-c3cn(C)nc3C)c2)C2=C(CC(C)(C)CC2=O)Nc2n[nH]cc21 [Compound 945545]
IC50 [1, 5]: 1000 to 5000 nM | IC50 [2, 6]: > 5000 nM

CC[C@]1(c2cccc(-c3cn(C)nc3C)c2)C2=C(CC(C)(C)CC2=O)Nc2n[nH]cc21 [Compound 945546]
IC50 [1, 5]: ≤ 100 nM | IC50 [1, 7]: ≤ 100 nM | IC50 [2, 6]: ≤ 100 nM | IC50 [2, 8]: 100 to 1000 nM

CC1(C)CC(=O)C2=C(C1)Nc1n[nH]cc1[C@@]21CCCc2c(-c3ccncc3)cccc21 [Compound 945547]
IC50 [1, 5]: 1000 to 5000 nM | IC50 [2, 6]: > 5000 nM

CC1(C)CC(=O)C2=C(C1)Nc1n[nH]cc1[C@]21CCCc2c(-c3ccncc3)cccc21 [Compound 945548]
IC50 [1, 5]: ≤ 100 nM | IC50 [2, 6]: ≤ 100 nM
